Experimental data: patent US6545131B1, “Tissue specific prodrug” (priority 1997, dated 2003)
Starred links: 1 amine or outer side, 2 acyl side, 3 side chain; linkers in the order of their positions; H or OH if unused. Residues, ends and D or L forms follow the SMILES beside them. *: point of attachment. Mu = morpholinocarbonyl, O=C(N1CCOCC1)*; AMC = Cc1cc(=O)oc2cc(N*)ccc12; Morpholide = C1CN(*)CCO1; CO = O=C([*:1])[*:2]; Dox = doxorubicin

Assays:
[1] = molecular target: T1, PSA (prostate specific antigen) (Homo sapiens, UniProt P07288); assay: Cleavage of AMC-labelled peptide substrates by purified PSA (fluorescence of released AMC; Lineweaver-Burke kinetics); format: biochemical
T1 construct: PSA was purified from human seminal plasma; from tissue; host or cells: human seminal plasma
T1 sequence (P07288 25-261): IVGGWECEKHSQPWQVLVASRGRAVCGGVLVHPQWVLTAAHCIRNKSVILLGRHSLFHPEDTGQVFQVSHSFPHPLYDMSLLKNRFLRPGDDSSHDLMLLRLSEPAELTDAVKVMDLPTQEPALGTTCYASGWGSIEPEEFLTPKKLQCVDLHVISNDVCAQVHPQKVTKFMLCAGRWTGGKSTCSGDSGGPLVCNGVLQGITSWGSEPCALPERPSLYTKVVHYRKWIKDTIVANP

[2] = system: Elastase; assay: Peptide-AMC cleavage by purified extracellular protease; format: biochemical; conditions: 0.2 mM substrate, PSA assay buffer pH 7.8
[3] = molecular target: T2, Plasmin (Homo sapiens, UniProt P00747); assay: as above; format: biochemical; conditions: 0.2 mM substrate, PSA assay buffer pH 7.8
T2 construct: purchased Calbiochem
T2 sequence (P00747 581-810 limits assumed, species assumed): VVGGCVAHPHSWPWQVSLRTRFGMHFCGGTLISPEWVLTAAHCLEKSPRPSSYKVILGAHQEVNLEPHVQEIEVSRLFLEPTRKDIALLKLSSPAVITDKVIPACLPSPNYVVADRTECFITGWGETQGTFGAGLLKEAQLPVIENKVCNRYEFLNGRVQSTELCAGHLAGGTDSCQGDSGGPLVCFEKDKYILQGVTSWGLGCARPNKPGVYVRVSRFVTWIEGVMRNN
T2 sequence (P00747 97-580 partner limits assumed, species assumed): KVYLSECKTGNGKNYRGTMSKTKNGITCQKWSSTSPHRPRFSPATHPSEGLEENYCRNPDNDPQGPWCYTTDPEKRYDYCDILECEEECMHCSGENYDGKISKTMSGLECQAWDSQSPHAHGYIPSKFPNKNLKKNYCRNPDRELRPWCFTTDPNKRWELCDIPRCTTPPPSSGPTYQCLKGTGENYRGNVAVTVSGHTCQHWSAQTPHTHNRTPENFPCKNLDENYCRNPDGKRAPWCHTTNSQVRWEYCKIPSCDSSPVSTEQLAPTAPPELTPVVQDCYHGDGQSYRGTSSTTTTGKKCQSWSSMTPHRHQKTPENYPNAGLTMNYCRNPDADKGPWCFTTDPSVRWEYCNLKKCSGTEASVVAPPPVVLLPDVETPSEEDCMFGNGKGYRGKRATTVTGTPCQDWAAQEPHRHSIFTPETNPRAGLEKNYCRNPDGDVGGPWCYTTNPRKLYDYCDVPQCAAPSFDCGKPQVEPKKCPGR

[4] = system: Trypsin; assay: as above; format: biochemical; conditions: 0.2 mM substrate, PSA assay buffer pH 7.8
[5] = molecular target: T3, chymotrypsin (Bos taurus, UniProt P00766); assay: as above; format: biochemical; conditions: 0.2 mM substrate, PSA assay buffer pH 7.8
T3 construct: purchased Sigma Chemical Co

[6] = system: human kallikrein, hK1; assay: as above; format: biochemical; conditions: 0.2 mM substrate, PSA assay buffer pH 7.8
[7] = molecular target: T4, thrombin (Homo sapiens, UniProt P00734); assay: as above; format: biochemical; conditions: 0.2 mM substrate, PSA assay buffer pH 7.8
T4 construct: purchased Sigma Chemical Co

[8] = molecular target: T5, tissue plasminogen activator (TPA) (Homo sapiens, UniProt P00750); assay: as above; format: biochemical; conditions: 0.2 mM substrate, PSA assay buffer pH 7.8
T5 construct: purchased Calbiochem
T5 sequence (P00750 36-562, species assumed): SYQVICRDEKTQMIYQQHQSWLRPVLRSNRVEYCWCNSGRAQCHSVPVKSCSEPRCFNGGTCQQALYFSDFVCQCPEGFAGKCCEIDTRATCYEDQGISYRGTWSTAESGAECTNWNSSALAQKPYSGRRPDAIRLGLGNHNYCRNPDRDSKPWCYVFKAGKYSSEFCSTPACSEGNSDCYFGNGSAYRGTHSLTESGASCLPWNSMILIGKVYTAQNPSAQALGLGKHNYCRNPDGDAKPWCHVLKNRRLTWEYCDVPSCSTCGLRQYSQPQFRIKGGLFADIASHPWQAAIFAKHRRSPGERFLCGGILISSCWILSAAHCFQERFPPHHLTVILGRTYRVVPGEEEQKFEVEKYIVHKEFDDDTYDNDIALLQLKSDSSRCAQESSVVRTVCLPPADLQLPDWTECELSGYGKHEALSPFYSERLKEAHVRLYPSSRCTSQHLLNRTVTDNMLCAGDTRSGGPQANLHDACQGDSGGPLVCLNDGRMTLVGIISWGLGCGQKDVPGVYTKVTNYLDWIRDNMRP

[9] = molecular target: T6, urokinase (Homo sapiens, UniProt P00749); assay: as above; format: biochemical; conditions: 0.2 mM substrate, PSA assay buffer pH 7.8
T6 construct: purchased Calbiochem

[10] = Stability of PSA substrates in serum (AMC release); format: in vitro ADME; conditions: 0.2 mM substrate
[11] = molecular target: T7, Cathepsin B (Homo sapiens, UniProt P07858); assay: PSA substrate cleavage by purified intracellular protease; format: biochemical; conditions: 0.2 mM substrate, pH 7.8; SKLQ, KLQ, LQ in 1.4% acetonitrile/buffer, Q-AMC in 0.2% formic acid/buffer
T7 construct: purchased Sigma Chemical Co
Protocol: (§1) Cleavage was studied by measuring fluorescence change secondary to AMC release. Fluorescence detection was carried out with a Fluoroskan II 96 well fluorometric plate reader (ICN Biomedicals, Costa Mesa, Calif.), with excitation wavelength 355 nm and emission wavelength 460 nm. Data were collected and analyzed using Deltasoft III software (Biometallics, Princeton, N.J.). All reactions were performed at room temperature by the addition of substrate and proteases into PSA buffer, described below, in a final volume of 200 μL. The results were determined from the initial linear increase of fluorescence and were expressed as the picomoles of AMC released per minute based upon comparison to a standard curve of the fluorescence of known amounts of AMC (i.e., fluorescence was linear form 20 to 300 picomoles of AMC). The data were analyzed by Lineweaver-Burke reciprocal plots to determine the Michaelis-Menten constant (i.e., Km) expressed as the amount of substrate needed to saturate half of the enzyme and the catalytic rate constant (i.e., kcat) expressed as the amount of substrate converted to product per time per amount of enzyme.
(§2) A family of peptide substrates based upon the EHSSKLQ (SEQ ID NO:10) sequence was assayed for activity for the intracellular proteases, and the results given in Table 4.
(§3) The amino acid sequences expressed in one letter amino acid code represent the following amino acid sequences in the three letter amino acid code: EHSSKLQ (Glu-His-Ser-Ser-Lys-Leu-Gln; SEQ ID NO:10), The shorter sequences are formed by deleting amino acids from the amino terminal side of the sequence. Determinations listed in the table were carried out with substrates at 0.2 mM concentration in the PSA assay buffer (50 mM Tris/0.1M NaCl pH 7.8), except SKLQ (SEQ ID NO:1), KLQ and LQ, which were carried out in 1.4% acetonitrile/buffer and Q-AMC which was carried out in 0.2% formic acid/buffer, at pH 7.8. The entry “UD” stands for “undetectable” and means that at most, 0.1 pmole of substrate cleavage per minute per 200 pmole protease took place. Asterisks represent experiments not performed. Abbreviations are as follows: PSA (prostate specific antigen), Cath B, C, D (Cathepsins, B, C, D), Esterase (porcine liver esterase).

[12] = molecular target: T8, Cathepsin C (Homo sapiens, UniProt P53634); assay: as above; format: biochemical; conditions: 0.2 mM substrate, pH 7.8; SKLQ, KLQ, LQ in 1.4% acetonitrile/buffer, Q-AMC in 0.2% formic acid/buffer
T8 construct: purchased Sigma Chemical Co
T8 sequence (P53634 25-463): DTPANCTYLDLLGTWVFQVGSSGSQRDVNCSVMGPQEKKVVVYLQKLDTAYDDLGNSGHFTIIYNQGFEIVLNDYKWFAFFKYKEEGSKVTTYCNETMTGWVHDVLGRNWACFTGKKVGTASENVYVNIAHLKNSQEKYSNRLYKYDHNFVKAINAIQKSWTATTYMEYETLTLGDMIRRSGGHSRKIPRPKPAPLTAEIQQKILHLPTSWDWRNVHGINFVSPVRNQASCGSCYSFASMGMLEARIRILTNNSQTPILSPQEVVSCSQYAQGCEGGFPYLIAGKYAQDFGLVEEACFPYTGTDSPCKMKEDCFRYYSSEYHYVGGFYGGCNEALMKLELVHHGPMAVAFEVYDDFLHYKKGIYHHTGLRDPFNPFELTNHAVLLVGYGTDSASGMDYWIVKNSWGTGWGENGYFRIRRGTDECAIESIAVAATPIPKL
Protocol: as §1, §2, §3

[13] = molecular target: T9, Cathepsin D (Homo sapiens, UniProt P07339); assay: as above; format: biochemical; conditions: 0.2 mM substrate, pH 7.8; SKLQ, KLQ, LQ in 1.4% acetonitrile/buffer, Q-AMC in 0.2% formic acid/buffer
T9 construct: purchased Sigma Chemical Co
T9 sequence (P07339 65-412): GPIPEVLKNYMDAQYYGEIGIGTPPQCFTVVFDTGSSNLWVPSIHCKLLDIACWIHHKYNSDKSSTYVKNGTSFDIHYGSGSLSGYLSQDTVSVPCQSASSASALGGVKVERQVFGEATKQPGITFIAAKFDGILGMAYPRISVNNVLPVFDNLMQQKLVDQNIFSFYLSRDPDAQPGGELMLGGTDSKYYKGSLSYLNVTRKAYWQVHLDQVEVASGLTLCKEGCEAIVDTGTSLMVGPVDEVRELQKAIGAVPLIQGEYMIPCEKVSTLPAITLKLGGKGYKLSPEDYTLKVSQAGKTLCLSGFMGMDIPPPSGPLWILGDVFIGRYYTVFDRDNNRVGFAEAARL
Protocol: as §1, §2, §3

[14] = system: porcine liver esterase; assay: as above; format: biochemical; conditions: 0.2 mM substrate, pH 7.8; SKLQ, KLQ, LQ in 1.4% acetonitrile/buffer, Q-AMC in 0.2% formic acid/buffer
Protocol: as §1, §2, §3

[15] = molecular target: T10, endoplasmic reticulum Ca2+-ATPase (SERCA), SR vesicles from rabbit skeletal muscle (Oryctolagus cuniculus, UniProt P04191); assay: SERCA inhibition: 45Ca2+ uptake to sarcoplasmic reticulum vesicles; format: biochemical; conditions: mean (n=3) ± standard error; 5 μg/ml SR protein, free Ca2+ 100 nM, 4 min uptake; read-out: IC50 (50% inhibition of 45Ca2+ uptake to SR vesicles)
T10 construct: sarcoplasmic reticulum (SR) vesicles prepared from rabbit skeletal muscle; from tissue; host or cells: rabbit skeletal muscle sarcoplasmic reticulum vesicles
T10 sequence (P04191 1-994 isoform P04191-2): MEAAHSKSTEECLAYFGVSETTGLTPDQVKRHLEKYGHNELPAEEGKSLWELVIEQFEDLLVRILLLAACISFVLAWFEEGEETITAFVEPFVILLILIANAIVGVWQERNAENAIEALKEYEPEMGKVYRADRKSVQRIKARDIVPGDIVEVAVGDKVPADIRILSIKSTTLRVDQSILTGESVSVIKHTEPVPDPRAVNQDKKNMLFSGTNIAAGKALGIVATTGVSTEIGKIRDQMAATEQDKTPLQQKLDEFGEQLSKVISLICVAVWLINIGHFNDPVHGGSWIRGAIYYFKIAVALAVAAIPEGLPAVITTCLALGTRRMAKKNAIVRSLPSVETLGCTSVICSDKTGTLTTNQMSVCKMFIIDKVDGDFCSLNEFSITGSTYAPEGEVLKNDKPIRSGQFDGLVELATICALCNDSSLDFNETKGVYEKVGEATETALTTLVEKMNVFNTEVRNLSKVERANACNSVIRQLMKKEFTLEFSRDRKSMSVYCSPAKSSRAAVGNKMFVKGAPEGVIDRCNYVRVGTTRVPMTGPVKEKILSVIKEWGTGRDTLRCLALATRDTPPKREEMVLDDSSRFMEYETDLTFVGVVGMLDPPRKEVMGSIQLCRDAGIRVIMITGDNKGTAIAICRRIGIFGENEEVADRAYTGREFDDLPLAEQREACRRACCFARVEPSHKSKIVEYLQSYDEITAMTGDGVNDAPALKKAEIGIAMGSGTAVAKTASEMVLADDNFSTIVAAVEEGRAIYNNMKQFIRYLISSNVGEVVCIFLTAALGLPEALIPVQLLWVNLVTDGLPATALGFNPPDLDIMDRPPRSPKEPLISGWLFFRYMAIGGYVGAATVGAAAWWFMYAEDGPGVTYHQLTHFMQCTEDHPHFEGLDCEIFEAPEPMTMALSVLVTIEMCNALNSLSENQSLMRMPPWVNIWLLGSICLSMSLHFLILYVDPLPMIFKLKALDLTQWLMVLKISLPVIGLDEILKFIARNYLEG
Protocol: The primary amine-containing thapsigargin analogs of the invention have endoplasmic reticulum Ca^2+-ATPase inhibitory activity. This activity is measured as the concentration of analog needed to inhibit 50% of this ATPase (IC50). The IC50 of the analogs of the invention is desirably at most 500 nM, preferably at most 200 nM, and more preferably at most 50 nM of analog.
The inhibitory potency of thapsigargin and its analogs was determined as the concentration required to produce 50% inhibition (i.e. IC50) of ^45Ca^2+ uptake to sarcoplasmic reticulum (SR) vesicles prepared from rabbit skeletal muscle by the method of De Meis and Hasselbach (J. Biol. Chem., 246: 4759-4763, 1971). The ^45Ca^2+ uptake assay was as described previously (Christensen, et al., FEBS, 335: 345-348, 1993), with the following modifications: 5 μg/ml of SR protein was incubated at 25EC and free Ca^2+ adjusted to 100 nM using 4 min. uptake time. Under these conditions, Ca^2+ could proceed linearly with time for at least 8 minutes. Measurements of Ca^2+ within TSU cells was determined as described previously (Lin et al., The Prostate, 33:201-207, 1997).
The IC50 results are mean (n=3)±standard error. The LC50 results are mean (n=5)±standard error. The entry “ND” stands for “not determined”. Clonogenic survival not determined above 10 μM for dBTG. Analogs with −boc have a t-butoxycarbonyl (boc) protected amino group.

[16] = Clonogenic survival of TSU-Pr1 cells after 72 hours exposure to TG analogs; format: cell-based, human; conditions: human; TSU-Pr1, 72 hours exposure; mean (n=5) ± standard error; read-out: LC50 (concentration needed to kill 50% of clonogenic cells)
Procedure, shortened: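 Androgen-independent human prostate cancer TSU-Pr1 cells (2×10^5) were exposed for 72 h to varying thapsigargin analog concentrations, and clonogenic survival was then assessed. LC50 is the concentration killing 50% of clonogenic cells, reported as mean of n=5 ± SE.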

[17] = Cytotoxic activity (LD50) of thapsigargin and debutanoyl derivative; format: cell-based
Protocol: The starting material for all the synthesized analogs is 8-O-debutanoylthapsigargin, which is easily available by triethylamine catalyzed methanolysis of thapsigargin. Removal of the butanoyl results in loss of cytotoxic activity with an LD50 of >50 μM compared to <100 nM for thapsigargin. Anhydrides of dicarboxylic acids of various lengths afforded analogs in which the acyl group attached to the O-8 ended in a free carboxylic acid. A dicyclohexylcarbodiimide (DCCI) promoted coupling of a 2,4-diaminoarene to the carboxylic acid analogs affords the derivatives in which contain a primary aromatic amine as a potential coupling point for additional moeities.

[18] = molecular target: sarcoplasmic reticulum (SR) and endoplasmic reticulum (ER) Ca2+-ATPase (SERCA) pump; conditions: read-out: apparent dissociation constant; cited from earlier work
[19] = cited from earlier work
[20] = system: TSU-Pr1 cells; assay: Clonogenic survival of TSU-Pr1 cells after 48 hr exposure to doxorubicin prodrugs with or without exogenously added PSA; format: cell-based, human; conditions: 50 μM prodrug
Protocol: The androgen responsive PSA-producing LNCaP and androgen independent PSA non-producing TSU-Pr1 are human prostate cancer lines were obtained from ATCC (Rockville, Md.) and maintained by serial passage in RPMI 1640 media containing 10% fetal calf serum with 100 units/ml penicillin G, and 100 units/ml streptomycin sulfate (antibiotics from M.A. Bioproducts, Walkerville, Md.) as standard media in 5% CO2/95% air at 37° C. The origins and characteristics of the LNCaP and TSU-Pr1 cell lines are described in Horoszewicz, et al., Cancer Res., 43:1809-1818, (1980)and Iizumi, et al., J. Urol, 137: 1304-1306, (1987).
Percentage clonogenic survival of TSU-Pr1 (2×10^5 cells) following 48 hr. exposure to varying concentrations of doxorubicin prodrugs with or without exogenously added PSA was performed as described in Martikainen et al., Cancer Res., 51:4693-4700, (1991).
Results for Mu-His-Ser-Ser-Lys-Leu-Gln-doxorubicin (SEQ ID NO:16) at 50 μM, were 122 colonies for treatment without PSA, and 110 colonies for treatment with 30 μg/ml enzymatically active PSA. Results are shown as averages (n=5) with standard error of 2 to 7. Assays were done in triplicate.

[21] = PSA substrate, PSA assay buffer pH 7.8, Lineweaver-Burke

Compound: Cc1cc(=O)oc2cc(NC(=O)[C@H](CCC(N)=O)NC(=O)[C@H](CC(C)C)NC(=O)[C@H](CCCCN)NC(=O)[C@H](CO)NC(=O)[C@H](CO)NC(=O)[C@H](Cc3c[nH]cn3)NC(=O)[C@H](CCC(=O)O)NC(=O)N3CCOCC3)ccc12 [EHSSKLQ, Glu-His-Ser-Ser-Lys-Leu-Gln] ({Morpholide-CO}-EHSSKLQ-{AMC})
- Picomoles of substrate cleaved/minute/200 pmoles of indicated protease: PSA ([1]; 0.2 mM substrate, PSA assay buffer pH 7.8, room temperature): 31.6 picomoles/minute/200 pmoles pr
- picomoles of peptide cleaved/min/200 picomoles protease: PSA ([1]; 0.2 mM substrate, pH 7.8, SKLQ, KLQ, LQ in 1.4% acetonitrile/buffer, Q-AMC in 0.2% formic acid/buffer): 31.6 picomoles/min/200 picomoles pr
- Kcat [1, 21]: 0.02 s⁻¹
- Km [1, 21]: 1160 µM
- Picomoles of substrate cleaved/minute/200 pmoles of indicated protease: Elastase [2]: UD (at most, 0.1 pmole of substrate cleavage per minute per 200 pmole protease took place)
- Picomoles of substrate cleaved/minute/200 pmoles of indicated protease: Plasmin [3]: UD (at most, 0.1 pmole of substrate cleavage per minute per 200 pmole protease took place)
- Picomoles of substrate cleaved/minute/200 pmoles of indicated protease: Trypsin [4]: UD (at most, 0.1 pmole of substrate cleavage per minute per 200 pmole protease took place)
- Picomoles of substrate cleaved/minute/200 pmoles of indicated protease: Chymo [5]: UD (at most, 0.1 pmole of substrate cleavage per minute per 200 pmole protease took place)
- Picomoles of substrate cleaved/minute/200 pmoles of indicated protease: Kallik [6]: UD (at most, 0.1 pmole of substrate cleavage per minute per 200 pmole protease took place)
- Picomoles of substrate cleaved/minute/200 pmoles of indicated protease: Thromb [7]: UD (at most, 0.1 pmole of substrate cleavage per minute per 200 pmole protease took place)
- Picomoles of substrate cleaved/minute/200 pmoles of indicated protease: TPA [8]: UD (at most, 0.1 pmole of substrate cleavage per minute per 200 pmole protease took place)
- Picomoles of substrate cleaved/minute/200 pmoles of indicated protease: Urokin [9]: UD (at most, 0.1 pmole of substrate cleavage per minute per 200 pmole protease took place)
- picomles AMC released/minute: Calf [10]: UD (not more than 0.01 picomole of substrate per minute was cleaved)
- picomles AMC released/minute: Fetal Calf [10]: UD (not more than 0.01 picomole of substrate per minute was cleaved)
- picomles AMC released/minute: Goat [10]: UD (not more than 0.01 picomole of substrate per minute was cleaved)
- picomles AMC released/minute: Mouse [10]: 2.17 picomoles/minute
- picomles AMC released/minute: Rat [10]: 0.06 picomoles/minute
- picomles AMC released/minute: Human ([10]; human serum 100%): UD (not more than 0.01 picomole of substrate per minute was cleaved)
- picomoles of peptide cleaved/min/200 picomoles protease: Cath B [11]: 4.3 picomoles/min/200 picomoles pr
- picomoles of peptide cleaved/min/200 picomoles protease: Cath C [12]: UD (at most, 0.1 pmole of substrate cleavage per minute per 200 pmole protease took place)
- picomoles of peptide cleaved/min/200 picomoles protease: Cath D [13]: 2.2 picomoles/min/200 picomoles pr
- picomoles of peptide cleaved/min/200 picomoles protease: Esterase [14]: UD (at most, 0.1 pmole of substrate cleavage per minute per 200 pmole protease took place)

Compound: C/C=C(/C)C(=O)O[C@H]1C(C)=C2[C@H]([C@@H]1OC(=O)CCCCCCC)[C@@](C)(OC(C)=O)C[C@H](OC(=O)CCC)[C@@]1(O)[C@H]2OC(=O)[C@@]1(C)O [TG, Thapsigargin]
- IC50 [15]: 5 ± 0.3 nM
- CC50 [16]: 30 ± 4 nM
- LD50 (cytotoxic activity) [17]: < 0.1 µM
- Kd [18]: ≤ 0.0022 nM
- solubility in water [19]: poorly soluble in water

Compound: C/C=C(/C)C(=O)O[C@H]1C(C)=C2[C@H]([C@@H]1OC(=O)CCCCCCC)[C@@](C)(OC(C)=O)C[C@H](O)[C@@]1(O)[C@H]2OC(=O)[C@@]1(C)O [dBTG, 8-O-debutanoylthapsigargin, reference compound]
- IC50 [15]: 149 ± 21 nM
- CC50 [16]: > 10000 nM
- LD50 (cytotoxic activity) [17]: > 50 µM

Compound: Mu-His-Ser-Ser-Lys-Leu-Gln-doxorubicin (Mu-HSSKLQ-Dox; listed as Homo sapiens) [doxorubicin prodrug without Leu linker; b202 describes it as acetyl-capped]
- number of TSU-Pr1 colonies, treatment with 30 μg/ml enzymatically active PSA ([20]; with 30 μg/ml PSA): 110 colonies
- number of TSU-Pr1 colonies, treatment without PSA ([20]; without PSA): 122 colonies
